# Like-named read-outs stand apart in the source and are kept apart here.
# How the values were obtained:
# [1] = system: male wild rats of Rattus norvegicus; format: in vivo; conditions: oral; for Mortality% / Dead: one week; for Linear probit / Linear response %: probit fit; for Dead: 8 treated
# Experimental: An approximate LD₅₀ was initially determined as a pilot study using the staircase method. Seventy adult male rats weighing 150–200 g were randomized and divided into ten groups (n = 10 × 7). Group I served as the control, while groups II, III, IV, V, VI, VII, VIII, IX, and X were treated orally with the following doses of bromadiolone, respectively: 0.3, 0.6, 0.9, 1.1, 1.2, 1.4, 1.8, 2.2, and 2.8 mg/kg b.w. The animals were observed during the first 2 h and then at 6 and 24 h for any toxic symptoms. Time to death and mortality were recorded over four days following administration. After one week, the LD₅₀ value was determined using probit analysis as described in[27].
# liver DNA = format: in vivo, Rattus norvegicus; conditions: oral, 21 days
# Experimental: (§1) Adult male rats (n = 7 × 9 = 63), weighing 150–200 g, were randomized and divided into seven groups. Group I served as the control. Group II received the vehicle control (0.1 ml/100 g ethanol). Group III was treated with bromadiolone (B) at ½ LD₅₀ (0.8 mg/kg)[28]. Group IV received bromadiolone (0.8 mg/kg) + ciprofloxacin (Anti.20 mg/kg)[29]. Group V received bromadiolone (0.8 mg/kg) + ciprofloxacin (20 mg/kg) + vitamin D (Vit. D 35 mg/kg)[30]. Group VI received bromadiolone (0.8 mg/kg) + ciprofloxacin (20 mg/kg) + vitamin D (35 mg/kg) + cinnamon (Cin. 2 g/kg)[31]. Group VII received bromadiolone (0.8 mg/kg) + ciprofloxacin (20 mg/kg) + vitamin D (35 mg/kg) + aspirin (A. 150 mg/kg)[32]. All doses were administered orally to wild rats over 21 days. The chemical we used for the euthanizing process: rats were narcotized by Ketamine + xylazine injection (IP) and then sacrificed by slaughtering.
# For the coated slides, 100 µL of cell suspension was mixed with 600 µL of low-melting agarose (0.8% in PBS). The coated slides were immersed for 15 min in a lysis solution containing 2.5% sodium dodecyl sulfate (SDS) and 0.045 M Tris-borate-EDTA (TBE) buffer at pH 8.4. The slides were then placed in an electrophoresis chamber filled with TBE buffer without SDS. Electrophoresis was conducted at 100 mA for two minutes at 2 V/cm. Staining was performed at 4 °C using 20 µg/mL ethidium bromide (EtBr). EtBr-stained DNA was visualized using a fluorescent microscope with a 40× objective and an excitation filter of 420–490 nm to detect DNA damage. Qualitative and quantitative assessments of tail length, tail moment, olive tail moment, and percentage of DNA in the head were determined using OpenComet software to evaluate five images.
# liver cells = test: Apoptosis estimation by acridine orange fluorescence staining; format: in vivo, Rattus norvegicus; conditions: AO staining, oral, 21 days
# Experimental: as §1
# Before staining with 0.01% acridine orange (AO) (stock solution: 0.1% AO in distilled water, diluted with phosphate buffer to a staining solution at pH 7.2), the sample was quickly passed through a graded alcohol series (80 − 50%) followed by distilled water. […] Acridine orange emits sharp green fluorescence when bound to DNA (apoptosis).
# [2] = male wild rats, probit analysis software
structure (smiles),measurement,setting,value
O=c1oc2ccccc2c(O)c1C(CC(O)c1ccc(-c2ccc(Br)cc2)cc1)c1ccccc1 (stereo not shown) [Bromadiolone],Mortality%,[1]; dose 0.3 mg/kg b.w.,12.5%
same,Observed response %,"[1]; dose 0.3 mg/kg b.w., probit analysis",14.286%
same,Linear probit,[1]; dose 0.3 mg/kg b.w.,3.6051
same,Linear response %,[1]; dose 0.3 mg/kg b.w.,8.159%
same,Mortality%,[1]; dose 0.6 mg/kg b.w.,25%
same,Observed response %,"[1]; dose 0.6 mg/kg b.w., probit analysis",14.286%
same,Linear probit,[1]; dose 0.6 mg/kg b.w.,4.1699
same,Linear response %,[1]; dose 0.6 mg/kg b.w.,20.3258%
same,Dead,[1]; dose 0.9 mg/kg b.w.,3
same,Mortality%,[1]; dose 0.9 mg/kg b.w.,37.5%
same,Observed response %,"[1]; dose 0.9 mg/kg b.w., probit analysis",28.571%
same,Linear probit,[1]; dose 0.9 mg/kg b.w.,4.5
same,Linear response %,[1]; dose 0.9 mg/kg b.w.,30.855%
same,Dead,[1]; dose 1.1 mg/kg b.w.,3
same,Mortality%,[1]; dose 1.1 mg/kg b.w.,37.5%
same,Observed response %,"[1]; dose 1.1 mg/kg b.w., probit analysis",28.571%
same,Linear probit,[1]; dose 1.1 mg/kg b.w.,4.6635
same,Linear response %,[1]; dose 1.1 mg/kg b.w.,36.8278%
same,Dead,[1]; dose 1.2 mg/kg b.w.,4
same,Mortality%,[1]; dose 1.2 mg/kg b.w.,50%
same,Observed response %,"[1]; dose 1.2 mg/kg b.w., probit analysis",42.857%
same,Linear probit,[1]; dose 1.2 mg/kg b.w.,4.7344
same,Linear response %,[1]; dose 1.2 mg/kg b.w.,39.5276%
same,Dead,[1]; dose 1.4 mg/kg b.w.,4
same,Mortality%,[1]; dose 1.4 mg/kg b.w.,50%
same,Observed response %,"[1]; dose 1.4 mg/kg b.w., probit analysis",42.857%
same,Linear probit,[1]; dose 1.4 mg/kg b.w.,4.8599
same,Linear response %,[1]; dose 1.4 mg/kg b.w.,44.4304%
same,Dead,[1]; dose 1.8 mg/kg b.w.,5
same,Mortality%,[1]; dose 1.8 mg/kg b.w.,62.5%
same,Observed response %,"[1]; dose 1.8 mg/kg b.w., probit analysis",57.143%
same,Linear probit,[1]; dose 1.8 mg/kg b.w.,5.0647
same,Linear response %,[1]; dose 1.8 mg/kg b.w.,52.578%
same,Mortality%,[1]; dose 2.2 mg/kg b.w.,62.5%
same,Observed response %,"[1]; dose 2.2 mg/kg b.w., probit analysis",57.143%
same,Linear probit,[1]; dose 2.2 mg/kg b.w.,5.2281
same,Linear response %,[1]; dose 2.2 mg/kg b.w.,59.022%
same,Dead,[1]; dose 2.8 mg/kg b.w.,8
same,Mortality%,[1]; dose 2.8 mg/kg b.w.,100%
same,Observed response %,"[1]; dose 2.8 mg/kg b.w., probit analysis",71.429%
same,Linear probit,[1]; dose 2.8 mg/kg b.w.,5.4246
same,Linear response %,[1]; dose 2.8 mg/kg b.w.,66.4427%
same,LD25,[1]; [2],0.7264 mg/kg
same,LD50,[1]; [2],1.6626 mg/kg
same,LD75,[1]; [2],3.8056 mg/kg
same,LD90,[1]; [2],8.0187 mg/kg
same,LD95,[1]; [2],12.5257 mg/kg
same,LD99,[1]; [2],28.9136 mg/kg
same,"LT25, Time",[1]; [2],2.187 days
same,"LT50, Time",[1]; [2],4.03 days
same,"LT75, Time",[1]; [2],7.426 days
same,"LT90, Time",[1]; [2],12.87 days
same,"LT95, Time",[1]; [2],17.89 days
same,"LT99, Time",[1]; [2],33.17 days
same,LD50,"[1]; male wild rats, probit analysis software, listed as bromadiolone",1.6 mg/kg
same,Observed response %,[1]; time 1 day,12.5%
same,Linear probit,[1]; time 1 day,3.4617
same,Linear response %,[1]; time 1 day,6.209%
same,Observed response %,[1]; time 2 days,12.5%
same,Linear probit,[1]; time 2 days,4.2266
same,Linear response %,[1]; time 2 days,21.9652%
same,Observed response %,[1]; time 3 days,37.5%
same,Linear probit,[1]; time 3 days,4.6741
same,Linear response %,[1]; time 3 days,37.2284%
same,Observed response %,[1]; time 4 days,50%
same,Linear probit,[1]; time 4 days,4.9918
same,Linear response %,[1]; time 4 days,49.6729%
same,Linear probit,[1]; time 5 days,5.2381
same,Linear response %,[1]; time 5 days,59.4089%
same,Observed response %,[1]; time 7 days,87.5%
same,Linear probit,[1]; time 7 days,5.6093
same,Linear response %,[1]; time 7 days,72.8843%
same,degree of liver DNA damage by comet assay,liver DNA; liver comet assay photomicrographs,moderate amount of damaged DNA
same,increase in olive tail moment (OTM) compared to the control,liver DNA; liver comet assay,710.02%
same,increase in tail DNA% (T.DNA%) compared to the control,liver DNA; liver comet assay,222.35%
same,increase in tail length (TL) compared to the control,liver DNA; liver comet assay,155.04%
same,increase in tail moment (TM) compared to the control,liver DNA; liver comet assay,506.09%
same,decrease in normal cells compared to the control,liver cells,18.66%
same,increase in apoptotic cells compared to the control,liver cells,109.72%
